Measured values from patent US20240262795A1, “PYRAZINE COMPOUNDS AS INHIBITORS OF FLT3” (Biomea Fusion, Inc., priority 2021, published 2024).
Where two headings read alike, the source gives them in different places.

Tests used:
K-562 = assay: Proliferation inhibition, CellTiter-Glo, K-562; format: cell-based, human; conditions: for IC50: Homo sapiens
In short: (§1)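 About 10,000 cells per well in RPMI-1640 with 10% FBS. Compounds added 2 h after seeding at eight concentrations in duplicate (0.2% DMSO as 100% proliferation), then incubated ~96 h at 37° C, 5% CO2. ATP measured by CellTiter-Glo luminescence; IC50 from four-parameter logistic fit.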

MOLM-13 = assay: Proliferation inhibition, CellTiter-Glo, MOLM-13; format: cell-based, human; conditions: for IC50: Homo sapiens, MOLM-13 cells
In short: as §1

WT FLT3 = biological target: T1, WT FLT3 (Homo sapiens, UniProt P36888); assay: WT FLT3 Lance Ultra TR-FRET kinase assay; format: biochemical
T1 construct: purchased Invitrogen PR4666C
T1 sequence (P36888 564-993 limits assumed): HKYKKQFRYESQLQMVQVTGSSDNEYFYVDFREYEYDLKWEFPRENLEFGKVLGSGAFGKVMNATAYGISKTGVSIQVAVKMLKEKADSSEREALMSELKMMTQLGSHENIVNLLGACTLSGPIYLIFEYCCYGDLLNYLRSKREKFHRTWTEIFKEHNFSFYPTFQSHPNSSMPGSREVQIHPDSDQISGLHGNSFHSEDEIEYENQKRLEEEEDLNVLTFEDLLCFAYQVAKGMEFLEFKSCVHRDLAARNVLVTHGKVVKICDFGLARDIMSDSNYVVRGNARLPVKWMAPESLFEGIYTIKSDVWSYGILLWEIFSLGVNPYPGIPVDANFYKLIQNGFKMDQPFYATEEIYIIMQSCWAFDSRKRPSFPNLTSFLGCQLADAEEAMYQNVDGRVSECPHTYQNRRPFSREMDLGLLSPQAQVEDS
In short: (§2)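 Lance Ultra TR-FRET with 50 nM ULight-JAK-1 (Tyr1023) peptide, Eu-anti-phosphotyrosine (PT66) detection, in HEPES pH 7.5 buffer at 23° C, 30 min enzyme/compound preincubation. WT: 0.5 nM enzyme, 100 μM ATP, 30 min; ITD: 0.0625 nM, 50 μM ATP, 60 min. IC50 by four-parameter fit of 11-point 3× dilutions.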

FLT3-ITD = biological target: T2, FLT3-ITD (Homo sapiens, UniProt P36888, DUP595-601); assay: FLT3-ITD Lance Ultra TR-FRET kinase assay; format: biochemical
T2 construct: purchased Signalchem F-12-12CG-10
T2 sequence (P36888 with tags, fused parts or gaps DUP595-601 limits assumed): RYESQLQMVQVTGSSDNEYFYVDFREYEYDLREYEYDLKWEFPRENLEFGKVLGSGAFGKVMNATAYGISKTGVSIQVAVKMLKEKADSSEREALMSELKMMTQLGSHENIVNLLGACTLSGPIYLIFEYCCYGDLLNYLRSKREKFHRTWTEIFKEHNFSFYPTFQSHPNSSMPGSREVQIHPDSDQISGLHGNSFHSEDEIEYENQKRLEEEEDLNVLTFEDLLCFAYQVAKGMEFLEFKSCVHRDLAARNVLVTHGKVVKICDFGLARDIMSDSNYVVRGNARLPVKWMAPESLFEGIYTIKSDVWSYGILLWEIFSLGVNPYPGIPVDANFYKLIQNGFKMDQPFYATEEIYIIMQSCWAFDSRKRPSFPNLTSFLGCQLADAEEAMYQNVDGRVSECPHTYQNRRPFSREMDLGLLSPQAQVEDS
In short: as §2

MV-4-11 = assay: Proliferation inhibition, CellTiter-Glo, MV-4-11; format: cell-based, human; conditions: for IC50: Homo sapiens
In short: as §1

[1] = K562, 96 h, K-562 cells, IC50 (4 days), CellTiter-Glo, read-out: K-562 IC50
[2] = 96 h, IC50 (4 days), CellTiter-Glo, read-out: MOLM-13 IC50
[3] = MV4-11, 96 h, MV-4:11 cells, IC50 (4 days), CellTiter-Glo, read-out: MV-4:11 IC50
[4] = K562 cells, read-out: IC50 in K562 cells
[5] = read-out: IC50 in MOLM-13 cells
[6] = MV4-11 cells, read-out: IC50 in MV4-11 cells

SMILES	IC50 (K-562; [1]) [nM]	IC50 (MOLM-13; [2]) [nM]	IC50 (WT FLT3) [nM]	IC50 (FLT3-ITD) [nM]	IC50 (MV-4-11; [3]) [nM]	IC50 (K-562; [4]) [nM]	Ymax in K562 cells (K-562; K562 cells) [%]	Ymax in MOLM-13 cells (MOLM-13) [%]	IC50 (MOLM-13; [5]) [nM]	IC50 (MV-4-11; [6]) [nM]	Ymax in MV4-11 cells (MV-4-11; MV4-11 cells) [%]
CCc1nc(C(N)=O)c(Nc2ccnc(CCNC(=O)CN(C)C(=O)/C=C/CN(C)C)c2)nc1N(C)CC [Compound 606, (E)-3-((2-(2-(2-(4-(dimethylamino)-N-methylbut-2-enamido)acetamido)ethyl)pyridin-4-yl)amino)-6-ethyl-5-(ethyl(methyl)amino)pyrazine-2-carboxamide]	> 500	1 to 10	0.501 to 1	0.201 to 0.5	< 1	–	–	–	–	–	–
C=CC(=O)Nc1cccc(Nc2nc(N3CCC[C@H](NC(=O)c4ccc(C5CC5)cc4)[C@@H]3C)cnc2C(N)=O)c1 [Compound C-1, reference compound]	> 500	> 500	> 1	> 1	> 500	> 100	0	0	> 100	> 100	9.7
C=CC(=O)Nc1cc(Nc2nc(NC3CCOCC3)c(CC)nc2C(N)=O)ccc1N1CCC(N2CCN(C)CC2)CC1 [Compound C-2, reference compound]	10 to 100	10 to 100	0.501 to 1	0.501 to 1	1 to 10	44	95.8	98.6	19.2	5	99.1
C=CC(=O)Nc1cc(Nc2nc(N[C@H]3CC[C@@](C)(O)CC3)c(CC)nc2C(N)=O)ccc1C [Compound C-3, reference compound]	> 500	> 500	> 1	> 1	> 500	> 100	0	0	> 100	> 100	6.8
